Results as given in the NIST ThermoML archive (doi:10.1021/je020120h).

How the values were obtained:
[1] = 298.15 K; 101.33 kPa; Liquid; Vibrating tube method
[2] = excess molar enthalpy (molar enthalpy of mixing); xn = mol fraction of the nth substance listed; conditions: 298.15 K, 101.3 kPa, Liquid, Flow calorimetry

Cc1ccccc1C [1,2-dimethylbenzene]
Conditions	mass density [kg/m3]
[1]	875

Cc1ccccc1C [1,2-dimethylbenzene] + COC(=O)OC
[2]
Conditions	excess molar enthalpy [kcal/mol]
x2 = 0.0511	0.0266
x2 = 0.1006	0.0553
x2 = 0.1503	0.0795
x2 = 0.2016	0.0932
x2 = 0.2513	0.106
x2 = 0.3024	0.125
x2 = 0.3519	0.137
x2 = 0.3998	0.147
x2 = 0.4514	0.153
x2 = 0.5013	0.155
x2 = 0.5519	0.153
x2 = 0.6007	0.149
x2 = 0.6502	0.142
x2 = 0.7002	0.132
x2 = 0.7504	0.12
x2 = 0.8008	0.104
x2 = 0.8513	0.0841
x2 = 0.8998	0.0605
x2 = 0.9501	0.0322

Cc1cccc(C)c1 [1,3-dimethylbenzene]
Conditions	mass density [kg/m3]
[1]	860

Cc1cccc(C)c1 [1,3-dimethylbenzene] + COC(=O)OC
[2]
Conditions	excess molar enthalpy [kcal/mol]
x2 = 0.0502	0.0299
x2 = 0.1006	0.0579
x2 = 0.151	0.0824
x2 = 0.2014	0.102
x2 = 0.2517	0.119
x2 = 0.3004	0.133
x2 = 0.3503	0.144
x2 = 0.4014	0.153
x2 = 0.4506	0.158
x2 = 0.5007	0.16
x2 = 0.5515	0.16
x2 = 0.6004	0.156
x2 = 0.6522	0.149
x2 = 0.7018	0.14
x2 = 0.7517	0.127
x2 = 0.8017	0.109
x2 = 0.8517	0.0878
x2 = 0.9015	0.063
x2 = 0.9509	0.0337

Cc1ccc(C)cc1 [1,4-dimethylbenzene]
Conditions	mass density [kg/m3]
[1]	856.7

Cc1ccc(C)cc1 [1,4-dimethylbenzene] + COC(=O)OC
[2]
Conditions	excess molar enthalpy [kcal/mol]
x2 = 0.0504	0.0295
x2 = 0.101	0.0543
x2 = 0.1515	0.0837
x2 = 0.202	0.102
x2 = 0.2529	0.119
x2 = 0.3012	0.133
x2 = 0.3512	0.145
x2 = 0.4022	0.153
x2 = 0.4515	0.159
x2 = 0.5016	0.161
x2 = 0.5524	0.16
x2 = 0.6013	0.156
x2 = 0.6507	0.149
x2 = 0.7004	0.139
x2 = 0.7503	0.125
x2 = 0.8003	0.109
x2 = 0.8502	0.0879
x2 = 0.9018	0.0621
x2 = 0.9511	0.033

COC(=O)OC [dimethyl carbonate]
Conditions	mass density [kg/m3]
[1]	1063.1

CCOC(=O)c1ccccc1 [ethyl benzoate]
Conditions	mass density [kg/m3]
[1]	1041.3

CCOC(=O)c1ccccc1 [ethyl benzoate] + COC(=O)OC
[2]
Conditions	excess molar enthalpy [kcal/mol]
x2 = 0.05	0.0138
x2 = 0.0999	0.0284
x2 = 0.1497	0.0413
x2 = 0.1991	0.0541
x2 = 0.2482	0.0641
x2 = 0.2984	0.073
x2 = 0.3495	0.0804
x2 = 0.4012	0.0861
x2 = 0.4503	0.09
x2 = 0.4998	0.0919
x2 = 0.5495	0.0924
x2 = 0.599	0.0911
x2 = 0.6506	0.0872
x2 = 0.6993	0.0831
x2 = 0.7495	0.075
x2 = 0.8007	0.0655
x2 = 0.8507	0.0533
x2 = 0.8993	0.0387
x2 = 0.9498	0.0207

CCc1ccccc1 [ethylbenzene]
Conditions	mass density [kg/m3]
[1]	862.5

CCc1ccccc1 [ethylbenzene] + COC(=O)OC
[2]
Conditions	excess molar enthalpy [kcal/mol]
x2 = 0.0501	0.0215
x2 = 0.1003	0.0489
x2 = 0.149	0.0639
x2 = 0.201	0.0848
x2 = 0.2512	0.104
x2 = 0.2998	0.119
x2 = 0.3525	0.133
x2 = 0.4005	0.143
x2 = 0.4524	0.15
x2 = 0.5025	0.153
x2 = 0.5507	0.153
x2 = 0.602	0.151
x2 = 0.6513	0.145
x2 = 0.7011	0.135
x2 = 0.7512	0.123
x2 = 0.8012	0.106
x2 = 0.8513	0.0865
x2 = 0.9012	0.0623
x2 = 0.9509	0.0335
